The values that follow come from ChEMBL document CHEMBL5212743, “Selectivity Literature for EUbOPEN Chemogenomics Library wave 3” (2023).

The target in assay [1] is Serine/threonine-protein kinase WNK4 (Homo sapiens) (UniProt Q96J92). Kind of assay: Selectivity interaction (KinomeScan (DiscoverX)) EUB0000702a WNK4. The settings on record: at 1 µM.
For assay [2], the target named is T1, Serine/threonine-protein kinase ULK2 (Homo sapiens) (UniProt Q8IYT8).
T1 sequence (whole entry): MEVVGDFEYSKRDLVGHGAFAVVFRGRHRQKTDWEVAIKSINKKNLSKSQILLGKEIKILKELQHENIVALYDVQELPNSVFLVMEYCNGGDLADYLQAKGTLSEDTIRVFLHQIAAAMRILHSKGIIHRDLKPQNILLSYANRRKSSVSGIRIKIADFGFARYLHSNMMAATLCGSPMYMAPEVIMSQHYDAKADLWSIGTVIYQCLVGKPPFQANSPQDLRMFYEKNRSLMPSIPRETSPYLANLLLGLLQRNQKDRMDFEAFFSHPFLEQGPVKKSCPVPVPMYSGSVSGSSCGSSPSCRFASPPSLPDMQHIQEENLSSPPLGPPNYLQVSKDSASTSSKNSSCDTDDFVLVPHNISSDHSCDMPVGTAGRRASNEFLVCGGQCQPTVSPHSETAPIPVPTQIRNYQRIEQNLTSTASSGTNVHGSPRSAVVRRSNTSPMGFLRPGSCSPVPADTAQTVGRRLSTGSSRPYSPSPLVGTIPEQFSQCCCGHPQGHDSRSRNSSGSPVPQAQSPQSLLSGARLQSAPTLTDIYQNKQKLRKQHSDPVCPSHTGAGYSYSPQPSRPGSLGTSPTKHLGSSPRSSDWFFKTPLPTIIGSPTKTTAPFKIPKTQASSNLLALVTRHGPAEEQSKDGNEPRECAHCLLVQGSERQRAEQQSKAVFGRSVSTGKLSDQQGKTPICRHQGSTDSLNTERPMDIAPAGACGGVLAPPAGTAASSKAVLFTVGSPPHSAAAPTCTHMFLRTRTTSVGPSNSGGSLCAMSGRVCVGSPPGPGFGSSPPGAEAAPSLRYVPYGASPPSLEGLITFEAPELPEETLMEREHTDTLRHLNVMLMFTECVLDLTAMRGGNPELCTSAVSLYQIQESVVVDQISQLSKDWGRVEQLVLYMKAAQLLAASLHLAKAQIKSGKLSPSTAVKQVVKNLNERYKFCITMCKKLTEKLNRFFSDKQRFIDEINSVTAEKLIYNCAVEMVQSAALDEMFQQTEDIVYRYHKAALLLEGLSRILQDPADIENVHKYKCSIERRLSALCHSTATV
Kind of assay: Selectivity interaction (KinomeScan (DiscoverX)) EUB0000702a ULK2. The settings on record: at 1 µM.

In assay [3] the test system is Tyrosine-protein kinase ABL1 (Homo sapiens), P00519 [Q252H]. Nature of the assay: (§1) Selectivity interaction (KinomeScan (DiscoverX)) EUB0000178b ABL1. The following applies: at 1 µM.
In assay [4] the test system is Tyrosine-protein kinase ABL1 (Homo sapiens), P00519 [T315I]. The assay is described as §1. The settings on record: at 1 µM.
Assay [5] concerns Tyrosine-protein kinase ABL1 (Homo sapiens), P00519 [M351T]. Described as §1. The settings on record: at 1 µM.
Assay [6] concerns the target Serine/threonine-protein kinase 16 (Homo sapiens, UniProt O75716). Nature of the assay: Selectivity interaction (KinomeScan (DiscoverX)) EUB0000138c STK16. The settings on record: at 100 nM.
For assay [7], the target named is Tyrosine-protein kinase Fer (Homo sapiens, UniProt P16591). The settings on record: at 1 µM.
Assay [8] addresses Macrophage-stimulating protein receptor (Homo sapiens) (UniProt Q04912). The following applies: at 1 µM.
Assay [9] concerns the target Muscle, skeletal receptor tyrosine-protein kinase (Homo sapiens) (UniProt O15146). The settings on record: at 1 µM.
Assay [10] concerns the target Tyrosine-protein kinase receptor Tie-1 (Homo sapiens) (UniProt P35590). The following applies: at 1 µM.
The next assay deals with Aurora kinase A (Homo sapiens, UniProt O14965).
Assay [11] deals with Proto-oncogene tyrosine-protein kinase ROS (Homo sapiens) (UniProt P08922). The following applies: at 1 µM.
Assay [12] has as its target Serine/threonine-protein kinase 17A (Homo sapiens, UniProt Q9UEE5). Nature of the assay: Selectivity interaction (NanoBRET assay (HEK293T cells)) EUB0000305b STK17A. On the technique in general: In BRET a luciferase serves as donor, and the signal depends on an acceptor being close.
Assay [13] concerns the target Rho-associated protein kinase 1 (Homo sapiens) (UniProt Q13464). Nature of the assay: Selectivity interaction (KinomeScan (DiscoverX)) EUB0000698a ROCK1. The following applies: at 10 µM.
The target of assay [14] is BMP-2-inducible protein kinase (Homo sapiens) (UniProt Q9NSY1). Nature of the assay: Selectivity interaction (KinomeScan (DiscoverX)) EUB0000698a BMP2K. The following applies: at 10 µM.
Assay [15] addresses Vascular endothelial growth factor receptor 3 (Homo sapiens) (UniProt P35916). Kind of assay: Selectivity interaction (KinomeScan (DiscoverX)) EUB0000698a FLT4. The following applies: at 10 µM.
The target of assay [16] is Mitogen-activated protein kinase 1 (Homo sapiens, UniProt P28482). Nature of the assay: Selectivity interaction (Kinase panel (University of Dundee)) EUB0000169b MAPK1. The following applies: at 10 µM.
The target in assay [17] is Dual specificity mitogen-activated protein kinase kinase 1 (Homo sapiens, UniProt Q02750). Kind of assay: Selectivity interaction (Kinase panel (University of Dundee)) EUB0000169b MAP2K1. The settings on record: at 10 µM.
The target of assay [18] is Tyrosine-protein kinase Lck (Homo sapiens, UniProt P06239). Kind of assay: Selectivity interaction (Kinase panel (University of Dundee)) EUB0000169b LCK. The following applies: at 10 µM.
Assay [19] deals with cAMP-dependent protein kinase catalytic subunit alpha (Homo sapiens, UniProt P17612). Nature of the assay: Selectivity interaction (Kinase panel (University of Dundee)) EUB0000169b PRKACA. The settings on record: at 10 µM.
Assay [20] concerns the target Casein kinase II subunit alpha (Homo sapiens, UniProt P68400). Nature of the assay: Selectivity interaction (Kinase panel (University of Dundee)) EUB0000169b CSNK2A1. The following applies: at 10 µM.
Assay [21] deals with T2, Serine/threonine-protein kinase Sgk1 (Homo sapiens) (UniProt O00141).
T2 sequence (whole entry): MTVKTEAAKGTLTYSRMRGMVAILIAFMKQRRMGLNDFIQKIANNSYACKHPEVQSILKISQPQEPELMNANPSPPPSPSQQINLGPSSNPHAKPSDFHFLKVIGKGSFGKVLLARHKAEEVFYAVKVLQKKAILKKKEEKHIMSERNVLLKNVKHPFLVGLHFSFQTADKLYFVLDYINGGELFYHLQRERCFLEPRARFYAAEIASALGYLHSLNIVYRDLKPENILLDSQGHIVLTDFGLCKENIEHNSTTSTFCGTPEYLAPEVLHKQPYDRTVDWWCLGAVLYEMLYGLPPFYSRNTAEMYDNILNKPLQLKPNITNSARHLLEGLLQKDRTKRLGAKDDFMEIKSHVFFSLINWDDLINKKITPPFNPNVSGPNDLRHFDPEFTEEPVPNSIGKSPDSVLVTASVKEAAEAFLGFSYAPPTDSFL
Kind of assay: Selectivity interaction (Kinase panel (University of Dundee)) EUB0000169b SGK1. The following applies: at 10 µM.

Chain of Casein kinase II subunit alpha (P68400 whole entry, looked up): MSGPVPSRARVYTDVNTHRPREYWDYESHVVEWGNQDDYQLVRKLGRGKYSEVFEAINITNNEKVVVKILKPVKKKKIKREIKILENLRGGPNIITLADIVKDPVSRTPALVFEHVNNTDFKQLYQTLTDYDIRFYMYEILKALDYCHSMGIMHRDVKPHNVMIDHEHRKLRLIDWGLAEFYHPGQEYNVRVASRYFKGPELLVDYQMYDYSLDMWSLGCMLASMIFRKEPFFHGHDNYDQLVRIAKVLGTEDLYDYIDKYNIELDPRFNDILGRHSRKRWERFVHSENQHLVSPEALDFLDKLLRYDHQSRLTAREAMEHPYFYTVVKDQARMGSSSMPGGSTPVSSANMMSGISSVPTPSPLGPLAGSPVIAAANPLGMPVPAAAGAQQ
Chain of Vascular endothelial growth factor receptor 3 (Homo sapiens) (P35916 whole entry): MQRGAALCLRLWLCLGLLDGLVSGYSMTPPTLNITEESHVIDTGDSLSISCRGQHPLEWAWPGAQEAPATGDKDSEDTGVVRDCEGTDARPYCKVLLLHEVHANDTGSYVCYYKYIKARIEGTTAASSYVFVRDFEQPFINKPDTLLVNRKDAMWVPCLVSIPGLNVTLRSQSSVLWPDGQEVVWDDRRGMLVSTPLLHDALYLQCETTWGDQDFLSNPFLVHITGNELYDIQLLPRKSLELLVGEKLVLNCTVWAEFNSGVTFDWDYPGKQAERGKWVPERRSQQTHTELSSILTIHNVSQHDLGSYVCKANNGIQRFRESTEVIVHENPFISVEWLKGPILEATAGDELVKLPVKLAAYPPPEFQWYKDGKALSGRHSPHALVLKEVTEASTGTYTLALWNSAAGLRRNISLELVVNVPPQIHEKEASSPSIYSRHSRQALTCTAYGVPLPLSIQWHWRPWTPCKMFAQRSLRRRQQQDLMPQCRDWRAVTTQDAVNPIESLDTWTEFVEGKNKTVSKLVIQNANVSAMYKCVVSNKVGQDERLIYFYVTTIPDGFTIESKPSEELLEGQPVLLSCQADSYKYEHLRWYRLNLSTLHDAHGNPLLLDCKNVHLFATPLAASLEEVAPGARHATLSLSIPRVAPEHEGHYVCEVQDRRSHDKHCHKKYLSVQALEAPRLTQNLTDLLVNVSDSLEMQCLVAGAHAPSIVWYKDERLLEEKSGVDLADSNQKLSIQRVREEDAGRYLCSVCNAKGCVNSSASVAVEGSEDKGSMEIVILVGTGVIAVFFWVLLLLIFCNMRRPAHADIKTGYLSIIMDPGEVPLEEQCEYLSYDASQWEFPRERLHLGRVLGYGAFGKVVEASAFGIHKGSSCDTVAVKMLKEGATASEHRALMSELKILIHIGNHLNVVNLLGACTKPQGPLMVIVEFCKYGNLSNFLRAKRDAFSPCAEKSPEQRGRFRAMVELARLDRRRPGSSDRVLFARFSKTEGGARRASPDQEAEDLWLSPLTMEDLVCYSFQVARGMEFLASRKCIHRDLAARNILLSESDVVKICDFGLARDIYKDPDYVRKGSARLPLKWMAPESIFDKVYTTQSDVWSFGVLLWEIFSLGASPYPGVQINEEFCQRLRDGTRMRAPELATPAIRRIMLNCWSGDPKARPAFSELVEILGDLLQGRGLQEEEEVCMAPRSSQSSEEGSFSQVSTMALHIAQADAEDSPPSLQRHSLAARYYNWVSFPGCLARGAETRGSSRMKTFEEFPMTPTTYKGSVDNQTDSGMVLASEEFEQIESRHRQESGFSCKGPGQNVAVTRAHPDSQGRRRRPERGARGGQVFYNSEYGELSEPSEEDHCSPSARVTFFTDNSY
Chain of Serine/threonine-protein kinase 17A (Q9UEE5 whole entry): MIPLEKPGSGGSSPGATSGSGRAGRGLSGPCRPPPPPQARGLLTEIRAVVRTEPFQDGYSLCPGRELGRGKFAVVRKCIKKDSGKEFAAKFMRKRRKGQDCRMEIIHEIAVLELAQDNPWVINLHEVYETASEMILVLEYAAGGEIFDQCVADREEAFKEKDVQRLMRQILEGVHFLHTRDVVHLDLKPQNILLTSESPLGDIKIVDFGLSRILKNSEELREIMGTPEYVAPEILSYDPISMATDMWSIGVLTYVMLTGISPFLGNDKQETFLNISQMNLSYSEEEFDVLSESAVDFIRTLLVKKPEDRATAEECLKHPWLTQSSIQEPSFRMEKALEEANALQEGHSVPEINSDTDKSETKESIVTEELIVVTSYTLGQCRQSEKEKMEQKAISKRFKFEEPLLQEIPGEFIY
Chain of Serine/threonine-protein kinase 16 (O75716 whole entry): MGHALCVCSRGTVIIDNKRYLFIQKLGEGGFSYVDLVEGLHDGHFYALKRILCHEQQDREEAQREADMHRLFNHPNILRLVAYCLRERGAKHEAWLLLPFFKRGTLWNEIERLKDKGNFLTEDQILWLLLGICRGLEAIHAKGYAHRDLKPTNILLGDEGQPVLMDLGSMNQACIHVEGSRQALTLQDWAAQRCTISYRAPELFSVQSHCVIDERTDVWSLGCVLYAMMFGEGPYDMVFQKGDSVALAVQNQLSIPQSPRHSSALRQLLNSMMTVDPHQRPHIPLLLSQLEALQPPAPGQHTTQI
Chain of BMP-2-inducible protein kinase (Homo sapiens) (Q9NSY1 whole entry, looked up): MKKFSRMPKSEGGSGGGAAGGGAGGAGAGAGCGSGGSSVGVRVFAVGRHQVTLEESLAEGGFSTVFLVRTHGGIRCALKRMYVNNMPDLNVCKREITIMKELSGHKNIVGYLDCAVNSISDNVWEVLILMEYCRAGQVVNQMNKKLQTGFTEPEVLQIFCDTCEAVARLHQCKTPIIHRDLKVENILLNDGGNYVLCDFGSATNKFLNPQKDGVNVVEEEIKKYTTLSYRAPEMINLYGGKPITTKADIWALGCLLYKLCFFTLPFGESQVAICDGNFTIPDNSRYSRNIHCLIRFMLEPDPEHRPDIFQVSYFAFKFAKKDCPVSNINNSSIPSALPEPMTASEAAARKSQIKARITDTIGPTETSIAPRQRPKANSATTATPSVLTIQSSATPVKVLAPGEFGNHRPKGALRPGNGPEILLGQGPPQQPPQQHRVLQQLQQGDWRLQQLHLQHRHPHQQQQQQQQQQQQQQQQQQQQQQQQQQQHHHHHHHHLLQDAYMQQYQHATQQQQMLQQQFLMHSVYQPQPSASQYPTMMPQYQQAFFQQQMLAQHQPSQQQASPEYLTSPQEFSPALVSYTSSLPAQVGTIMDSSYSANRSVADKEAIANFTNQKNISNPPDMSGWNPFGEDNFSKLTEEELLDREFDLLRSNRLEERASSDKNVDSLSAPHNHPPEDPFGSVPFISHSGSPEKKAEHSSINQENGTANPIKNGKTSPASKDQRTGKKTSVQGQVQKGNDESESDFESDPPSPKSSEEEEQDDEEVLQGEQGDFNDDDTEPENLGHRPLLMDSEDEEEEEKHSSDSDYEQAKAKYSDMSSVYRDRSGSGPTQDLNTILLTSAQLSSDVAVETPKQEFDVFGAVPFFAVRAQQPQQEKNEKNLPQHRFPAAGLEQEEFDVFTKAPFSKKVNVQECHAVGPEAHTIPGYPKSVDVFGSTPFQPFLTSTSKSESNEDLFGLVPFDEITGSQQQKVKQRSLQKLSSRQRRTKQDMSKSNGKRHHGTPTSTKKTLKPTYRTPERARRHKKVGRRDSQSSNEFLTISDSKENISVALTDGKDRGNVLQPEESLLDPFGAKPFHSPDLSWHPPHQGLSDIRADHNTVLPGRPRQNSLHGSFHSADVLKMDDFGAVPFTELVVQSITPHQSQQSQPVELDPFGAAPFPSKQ
Chain of Rho-associated protein kinase 1 (Homo sapiens) (Q13464 2-1354 limits assumed): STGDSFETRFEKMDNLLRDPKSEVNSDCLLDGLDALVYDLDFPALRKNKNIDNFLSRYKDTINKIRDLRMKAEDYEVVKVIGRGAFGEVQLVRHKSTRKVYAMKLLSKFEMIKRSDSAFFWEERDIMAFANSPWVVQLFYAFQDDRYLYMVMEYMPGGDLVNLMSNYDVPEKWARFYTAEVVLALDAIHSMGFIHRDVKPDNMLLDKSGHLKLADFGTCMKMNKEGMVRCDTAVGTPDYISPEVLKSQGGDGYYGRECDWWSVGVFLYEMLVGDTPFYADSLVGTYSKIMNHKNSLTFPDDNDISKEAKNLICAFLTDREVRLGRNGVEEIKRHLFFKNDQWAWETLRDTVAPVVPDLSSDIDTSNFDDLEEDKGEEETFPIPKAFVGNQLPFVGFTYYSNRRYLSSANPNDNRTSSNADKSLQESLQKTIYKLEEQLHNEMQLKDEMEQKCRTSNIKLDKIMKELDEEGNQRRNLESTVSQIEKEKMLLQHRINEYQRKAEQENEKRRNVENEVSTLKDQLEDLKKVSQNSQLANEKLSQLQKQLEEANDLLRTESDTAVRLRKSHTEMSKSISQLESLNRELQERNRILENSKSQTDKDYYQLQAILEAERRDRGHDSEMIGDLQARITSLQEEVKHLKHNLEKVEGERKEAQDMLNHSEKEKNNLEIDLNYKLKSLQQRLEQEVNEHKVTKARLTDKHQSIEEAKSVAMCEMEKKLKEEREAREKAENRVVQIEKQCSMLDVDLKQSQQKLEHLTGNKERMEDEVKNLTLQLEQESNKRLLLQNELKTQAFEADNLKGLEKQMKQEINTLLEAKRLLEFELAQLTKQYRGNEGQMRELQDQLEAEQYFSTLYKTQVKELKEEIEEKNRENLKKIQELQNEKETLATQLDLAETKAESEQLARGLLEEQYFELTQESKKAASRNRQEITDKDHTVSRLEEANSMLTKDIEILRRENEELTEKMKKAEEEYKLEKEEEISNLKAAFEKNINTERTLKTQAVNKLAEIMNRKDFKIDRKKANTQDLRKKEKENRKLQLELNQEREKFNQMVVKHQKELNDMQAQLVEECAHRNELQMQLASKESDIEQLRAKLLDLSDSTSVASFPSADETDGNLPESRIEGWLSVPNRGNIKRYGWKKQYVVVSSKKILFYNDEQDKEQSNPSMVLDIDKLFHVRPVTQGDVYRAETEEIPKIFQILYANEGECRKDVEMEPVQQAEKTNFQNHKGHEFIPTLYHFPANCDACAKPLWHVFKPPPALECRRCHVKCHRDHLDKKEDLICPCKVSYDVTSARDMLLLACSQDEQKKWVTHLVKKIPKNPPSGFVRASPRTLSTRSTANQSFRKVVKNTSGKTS

Take `CN(c1ccnc(CNc2nc(Nc3ccc4c(c3)CC(=O)N4)ncc2C(F)(F)F)n1)S(C)(=O)=O` [PF-00911705]: the % of control in [1] stood at 0%; in assay [2] it was 5.4%.
Turning to `CN1C(=O)c2sccc2N(C)c2nc(Nc3ccc(S(N)(=O)=O)cc3)ncc21`, the figures for the % of control in assay [3], in [4] and in assay [5] were 6.8%, 1.6% and 5.5%, respectively.
In the case of `CNC(=O)c1ccc(Nc2ncc(C(F)(F)F)c(NCc3nccnc3N(C)S(C)(=O)=O)n2)cc1` [DEFACTINIB], the % of control in [6] came out at 7.7%.
Take `CCOc1cn(-c2ccc(F)cc2C)nc1C(=O)Nc1ccc(Oc2ccnc3cc(OC)c(OC)cc23)c(F)c1`: the % of control in assay [7], in assay [8], in [9], in assay [10] and in [11] was less than 10% in each case. Besides, the 50% inhibitory concentration (IC50) (in general, the concentration at which inhibition is half-maximal) against Aurora kinase A worked out at 36 nM.
Turning to `C[C@H](c1ccnc(Nc2nc3ccc(-c4cc(N(C)C)ncn4)cc3[nH]2)c1)N1CCN(C(=O)CC(F)(F)F)CC1` [BAY-985], the IC50 in assay [12] is more than 20000 nM.
Regarding `COc1cc2ncn(-c3cc(OCc4ccccc4C(F)(F)F)c(C(N)=O)s3)c2cc1OC` [GW843682X], the % of control in [13] came to 4.7%; in assay [14], 1%; in assay [15], 1.4%.
Take `CC[C@@H]1C(=O)N(C)c2cnc(Nc3ccc(C(=O)NC4CCN(C)CC4)cc3OC)nc2N1C1CCCC1`: the % of control is 93% in [16]; 115% in assay [17]; 55% in assay [18]; 100% in assay [19]; 103% in [20]; 80% in assay [21].
